ChEMBL document CHEMBL3046894, “Synthesis and Herbicidal Activity of Pyrimidinyl Salicylic and Thiosalicylic Acids” (J Pestic Sci, 1996)
Calls of active or inactive are those of the source. The calls are words filed in the database; no cut-off is given here.

Tests used:
Ipomoea lacunosa [1] = test: Post-emergence herbicidal activity against Ipomoea lacunosa assessed as mortality at 1.6 g a.i/10 a applied 11 days after germination as foliar spray; type: functional; settings: 264 h
Gossypium hirsutum [2] = test: Post-emergence phytotoxicity against Gossypium hirsutum (cotton) assessed as mortality at 1.6 g a.i/10 a applied 11 days after germination as foliar spray; type: organism-based; settings: in vivo, other, 264 h
Abutilon theophrasti [3] = test: Pre-emergence herbicidal activity against Abutilon theophrasti (velvetleaf) assessed as mortality at 1.6 g a.i/10 a; type: functional
Echinochloa crus-galli [4] = test: Pre-emergence herbicidal activity against Echinochloa crus-galli (barnyard grass) assessed as mortality at 6.3 g a.i/10 a; type: functional
Glycine max [5] = test: Post-emergence phytotoxicity against Glycine max (soybean) assessed as mortality at 6.3 g a.i/10 a applied 11 days after germination as foliar spray; type: organism-based; settings: in vivo, other, 264 h
Zea mays [6] = test: (§1) Post-emergence phytotoxicity against Zea mays (maize) assessed as mortality at 1.6 g a.i/10 a applied 11 days after germination as foliar spray; type: organism-based; settings: in vivo, other, 264 h
Xanthium strumarium [7] = test: Pre-emergence herbicidal activity against Xanthium strumarium (cocklebur) assessed as mortality at 6.3 g a.i/10 a; type: functional
Echinochloa crus-galli [8] = test: Post-emergence herbicidal activity against Echinochloa crus-galli (barnyard grass) assessed as mortality at 1.6 g a.i/10 a applied 11 days after germination as foliar spray; type: functional; settings: 264 h
Ipomoea lacunosa [9] = test: Pre-emergence herbicidal activity against Ipomoea lacunosa assessed as mortality at 6.3 g a.i/10 a; type: functional
Ipomoea lacunosa [10] = test: Pre-emergence herbicidal activity against Ipomoea lacunosa assessed as mortality at 1.6 g a.i/10 a; type: functional; settings: for mortality at 16 g/ha: Ipomoea lacunosa, pre-emergence
Gossypium hirsutum [11] = test: Post-emergence phytotoxicity against Gossypium hirsutum (cotton) assessed as mortality at 6.3 g a.i/10 a applied 11 days after germination as foliar spray; type: organism-based; settings: in vivo, other, 264 h
Gossypium hirsutum [12] = test: Pre-emergence phytotoxicity against Gossypium hirsutum (cotton) assessed as mortality at 1.6 g a.i/10 a; type: organism-based; settings: in vivo, other
Echinochloa crus-galli [13] = test: Pre-emergence herbicidal activity against Echinochloa crus-galli (barnyard grass) assessed as mortality at 1.6 g a.i/10 a; type: functional
Echinochloa crus-galli [14] = test: Post-emergence herbicidal activity against Echinochloa crus-galli (barnyard grass) assessed as mortality at 6.3 g a.i/10 a applied 11 days after germination as foliar spray; type: functional; settings: 264 h
Xanthium strumarium [15] = test: Pre-emergence herbicidal activity against Xanthium strumarium (cocklebur) assessed as mortality at 1.6 g a.i/10 a; type: functional; settings: for mortality at 16 g/ha: Xanthium strumarium, pre-emergence
Zea mays [16] = test: Pre-emergence phytotoxicity against Zea mays (maize) assessed as mortality at 6.3 g a.i/10 a; type: organism-based; settings: in vivo, other
[17] = Pre-emergence phytotoxicity against Zea mays (maize) assessed as mortality at 1.6 g a.i/10 a; type: organism-based; settings: in vivo, 1.6 g a.i/10 a
[18] = (§2) Pre-emergence phytotoxicity against Glycine max (soybean) assessed as mortality at 1.6 g a.i/10 a; type: organism-based; settings: in vivo, 1.6 g a.i/10 a, read-out: Activity
Glycine max [19] = test: (§3) Post-emergence phytotoxicity against Glycine max (soybean) assessed as mortality at 1.6 g a.i/10 a applied 11 days after germination as foliar spray; type: organism-based; settings: in vivo, other, 264 h
Zea mays [20] = test: Post-emergence phytotoxicity against Zea mays (maize) assessed as mortality at 6.3 g a.i/10 a applied 11 days after germination as foliar spray; type: organism-based; settings: in vivo, other, 264 h
Gossypium hirsutum [21] = test: Pre-emergence phytotoxicity against Gossypium hirsutum (cotton) assessed as mortality at 6.3 g a.i/10 a; type: organism-based; settings: in vivo, other
Xanthium strumarium [22] = test: Post-emergence herbicidal activity against Xanthium strumarium (cocklebur) assessed as mortality at 1.6 g a.i/10 a applied 11 days after germination as foliar spray; type: functional; settings: 264 h
Ipomoea lacunosa [23] = test: Post-emergence herbicidal activity against Ipomoea lacunosa assessed as mortality at 6.3 g a.i/10 a applied 11 days after germination as foliar spray; type: functional; settings: 264 h
[24] = (§4) Pre-emergence phytotoxicity against Glycine max (soybean) assessed as mortality at 6.3 g a.i/10 a; type: organism-based; settings: in vivo, 6.3 g a.i/10 a
Cyperus iria [25] = test: Post-emergence herbicidal activity against Cyperus iria assessed as growth inhibition at 25 g a.i/10 a applied 11 days after germination as foliar spray; type: functional, organism-based
Cyperus iria [26] = test: Pre-emergence herbicidal activity against Cyperus iria assessed as growth inhibition at 25 g a.i/10 a; type: functional, organism-based
Persicaria nodosa [27] = test: Pre-emergence herbicidal activity against Persicaria nodosa assessed as growth inhibition at 25 g a.i/10 a; type: functional, organism-based
Abutilon theophrasti [28] = test: Post-emergence herbicidal activity against Abutilon theophrasti (velvetleaf) assessed as mortality at 6.3 g a.i/10 a applied 11 days after germination as foliar spray; type: functional; settings: 264 h
[29] = as §1; type: organism-based; settings: in vivo, 1.6 g a.i/10 a
Digitaria sanguinalis [30] = test: Pre-emergence herbicidal activity against Digitaria sanguinalis (hairy crabgrass) assessed as growth inhibition at 25 g a.i/10 a; type: functional, organism-based
Amaranthus retroflexus [31] = test: Pre-emergence herbicidal activity against Amaranthus retroflexus assessed as growth inhibition at 25 g a.i/10 a; type: functional, organism-based
Echinochloa crus-galli [32] = test: Post-emergence herbicidal activity against Echinochloa crus-galli (barnyard grass) assessed as growth inhibition at 25 g a.i/10 a applied 11 days after germination as foliar spray; type: functional, organism-based
Glycine max [33] = test: as §2; type: organism-based; settings: in vivo, other
Echinochloa crus-galli [34] = test: Pre-emergence herbicidal activity against Echinochloa crus-galli (barnyard grass) assessed as growth inhibition at 25 g a.i/10 a; type: functional, organism-based
Xanthium strumarium [35] = test: Post-emergence herbicidal activity against Xanthium strumarium (cocklebur) assessed as mortality at 6.3 g a.i/10 a applied 11 days after germination as foliar spray; type: functional; settings: 264 h
Abutilon theophrasti [36] = test: Post-emergence herbicidal activity against Abutilon theophrasti (velvetleaf) assessed as mortality at 1.6 g a.i/10 a applied 11 days after germination as foliar spray; type: functional; settings: 264 h
Chenopodium album [37] = test: Pre-emergence herbicidal activity against Chenopodium album assessed as growth inhibition at 25 g a.i/10 a; type: functional, organism-based
[38] = as §3; type: organism-based; settings: in vivo, 1.6 g a.i/10 a
Chenopodium album [39] = test: Post-emergence herbicidal activity against Chenopodium album assessed as growth inhibition at 25 g a.i/10 a applied 11 days after germination as foliar spray; type: functional, organism-based
Digitaria sanguinalis [40] = test: Post-emergence herbicidal activity against Digitaria sanguinalis (hairy crabgrass) assessed as growth inhibition at 25 g a.i/10 a applied 11 days after germination as foliar spray; type: functional, organism-based
Persicaria nodosa [41] = test: Post-emergence herbicidal activity against Persicaria nodosa assessed as growth inhibition at 25 g a.i/10 a applied 11 days after germination as foliar spray; type: functional, organism-based
Abutilon theophrasti [42] = test: Pre-emergence herbicidal activity against Abutilon theophrasti (velvetleaf) assessed as mortality at 6.3 g a.i/10 a; type: functional; settings: Abutilon theophrasti, pre-emergence
Amaranthus retroflexus [43] = test: Post-emergence herbicidal activity against Amaranthus retroflexus assessed as growth inhibition at 25 g a.i/10 a applied 11 days after germination as foliar spray; type: functional, organism-based
Glycine max [44] = test: as §4; type: organism-based; settings: in vivo, other

SMILES	mortality at 16 g/ha (Ipomoea lacunosa [1]) [%]	Activity (Gossypium hirsutum [2])	Activity (Gossypium hirsutum [11])	Activity (Gossypium hirsutum [12])	mortality at 63 g/ha (Echinochloa crus-galli [14]) [%]	Activity (Gossypium hirsutum [21])	mortality at 63 g/ha (Ipomoea lacunosa [23]) [%]	growth inhibition (GI) (Cyperus iria [25])	growth inhibition (GI) (Cyperus iria [26])	growth inhibition (GI) (Persicaria nodosa [27])	mortality at 63 g/ha (Abutilon theophrasti [28]) [%]	mortality at 264 h [29] [%]	mortality at 16 g/ha (Ipomoea lacunosa [10]) [%]	growth inhibition (GI) (Digitaria sanguinalis [30])	mortality at 16 g/ha (Xanthium strumarium [15]) [%]	growth inhibition (GI) (Amaranthus retroflexus [31])	growth inhibition (GI) (Echinochloa crus-galli [32])	mortality ([17]; read-out: mortality) [%]	Activity (Glycine max [33])	growth inhibition (GI) (Echinochloa crus-galli [34])	other results
CCCOc1cccc(Sc2nc(OC)cc(OC)n2)c1C(=O)O	< 5	Non-toxic	Toxic	Non-toxic	< 5	Non-toxic	< 5														Activity (Abutilon theophrasti [3]): <50%; Activity (Echinochloa crus-galli [4]): <50%; Activity (Glycine max [5]): Toxic; Activity (Zea mays [6]): Non-toxic; Activity (Xanthium strumarium [7]): <50%; mortality at 16 g/ha (Echinochloa crus-galli [8]): < 5%; Activity (Ipomoea lacunosa [9]): <50%; Activity (Ipomoea lacunosa [10]): <50%; Activity (Echinochloa crus-galli [13]): <50%; Activity (Xanthium strumarium [15]): <50%; Activity (Zea mays [16]): < 50%; mortality ([17]; read-out: Activity): < 50%; mortality [18]: < 50%; Activity (Glycine max [19]): Non-toxic; Activity (Zea mays [20]): Toxic; mortality at 16 g/ha (Xanthium strumarium [22]): < 5%; mortality ([24]; read-out: Activity): < 50%
COc1cc(OC)nc(Oc2cccc(I)c2C(=O)O)n1	> 90	Toxic	Toxic	Non-toxic	> 90	Non-toxic	> 90	Active	Active	Active	> 90	> 90	< 5	Active	< 5	Active	Active	> 90	Toxic	Active	mortality at 16 g/ha (Abutilon theophrasti [3]; Abutilon theophrasti, pre-emergence): > 90%; mortality at 63 g/ha (Echinochloa crus-galli [4]; Echinochloa crus-galli, pre-emergence): > 90%; mortality at 63 g/ha (Xanthium strumarium [35]): > 90%; mortality at 16 g/ha (Abutilon theophrasti [36]): > 90%; growth inhibition (GI) (Chenopodium album [37]): Active; mortality at 264 h [38]: > 90%; growth inhibition (GI) (Chenopodium album [39]): Active; growth inhibition (GI) (Digitaria sanguinalis [40]): Active; growth inhibition (GI) (Persicaria nodosa [41]): Active; mortality at 63 g/ha (Abutilon theophrasti [42]): > 90%; growth inhibition (GI) (Amaranthus retroflexus [43]): Active; mortality ([24]; read-out: mortality): > 90%
COc1cc(OC)nc(Oc2cccc(C(F)(F)F)c2C(=O)O)n1		Toxic	Toxic	Non-toxic		Non-toxic	> 90	Active	Active	Active	> 90	> 90	< 5	Active	< 5	Active	Active	> 90	Toxic	Active	mortality at 63 g/ha (Xanthium strumarium [7]; Xanthium strumarium, pre-emergence): < 5%; mortality at 63 g/ha (Xanthium strumarium [35]): > 90%; mortality at 16 g/ha (Abutilon theophrasti [36]): > 90%; growth inhibition (GI) (Chenopodium album [37]): Active; mortality at 264 h [38]: > 90%; growth inhibition (GI) (Chenopodium album [39]): Active; growth inhibition (GI) (Digitaria sanguinalis [40]): Active; growth inhibition (GI) (Persicaria nodosa [41]): Active; growth inhibition (GI) (Amaranthus retroflexus [43]): Active; Activity (Glycine max [44]): Toxic
